# From US11344510B2, “Arylcyclohexylamine derivatives and their use in the treatment of psychiatric disorders” (Gilgamesh Pharmaceuticals, Inc., priority 2019, dated 2022)
# Entries after “also recorded” stand apart in the source; their conditions may differ.
# Legend:
# [1] = RLM stability (High Activity); format: in vitro ADME, Sprague Dawley rats
# Experimental: (§1) RLM Stability (High Activity). Pooled RLM from male Sprague Dawley rats (XenoTech R1000, lot #1910100) were used. Microsomal incubations were carried out in 96-well plates in 5 aliquots of 40 μL each (one for each time point). Liver microsomal incubation medium consisted of PBS (100 mM, pH 7.4), MgCl2 (3.3 mM), NADPH (3 mM), glucose-6-phosphate (5.3 mM), and glucose-6-phosphate dehydrogenase (0.67 units/mL), with 1.0 mg of liver microsomal protein per mL. Control incubations were performed by replacing the NADPH-cofactor system with PBS. Test compounds (1 μM, final solvent concentration 1.6%) were incubated with microsomes at 37° C., shaking at 100 rpm. Incubations were performed in duplicate. Five time points over 60 minutes were analyzed. The reactions were stopped by adding 9 volumes of 90% acetonitrile-water to incubation aliquots, followed by protein sedimentation by centrifugation at 5500 rpm for 3 minutes. Supernatants were analyzed for parent compound remaining using a fit-for-purpose liquid chromatography-tandem mass spectrometry (LC-MS/MS) method, with authentic samples of each analyte used for identity confirmation.
# Data Analysis. The elimination constant (kel), half-life (t1/2) and intrinsic clearance (Clint) were determined in a plot of […] versus time, using linear regression analysis.
# [2] = molecular target: T1, serotonin transporter (SERT) (Homo sapiens, UniProt P31645); test: Fluorescent substrate uptake inhibition, SERT; format: cell-based; conditions: 10 μM, HEK293 cells expressing SERT
# T1 construct: expressed in transfected cells; host or cells: HEK293
# [3] = molecular target: MK-801 binding site of the N-methyl-D-aspartate receptor (NMDAR); test: NMDAR radioligand binding with [3H]MK-801, Method B; design: species or system Sprague Dawley rat; conditions: MK-801 site, Method B, male Sprague Dawley rat cortex, 5.0 nM [3H]MK-801; read-out: NMDAR Ki ± SEM
# Experimental: Radioligand Binding—Method B. Affinity of the test compounds for NMDAR was determined in radioligand binding experiments with [^3H]MK-801 by WuXi AppTec (Hong Kong) Limited, under the conditions described in Table 13.
# [4] = MLM stability (High Activity); format: in vitro ADME, BALB/c mice; conditions: male, BALB/c, mouse, liver microsomes, pH 7.4, Condition 2 (High Activity), 1.0 mg protein/mL
# How it was run: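 Pooled male BALB/c mouse liver microsomes (1.0 mg/mL) in 100 mM PBS pH 7.4 with NADPH-regenerating system; compound 1 μM, 37 °C, five time points over 60 min, duplicate; NADPH-free controls. Parent remaining by LC-MS/MS; kel, t1/2 and Clint from linear regression of ln(AUC) versus time.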
# [5] = molecular target: T2, vesicular monoamine transporter 2 (VMAT2) (Homo sapiens, UniProt Q05940); test: Fluorescent substrate uptake inhibition, VMAT2; format: cell-based; conditions: 10 μM, transfected cells
# T2 construct: expressed in transfected cells
# [6] = molecular target: T3, dopamine transporter (DAT) (Homo sapiens, UniProt Q01959); test: Fluorescent substrate uptake inhibition, DAT; format: cell-based; conditions: 10 μM, CHO cells expressing DAT
# T3 construct: expressed in transfected cells; host or cells: CHO (uptake)
# [7] = HLM stability (High Activity); format: in vitro ADME; conditions: both sexes, human, liver microsomes, pH 7.4, Condition 2 (High Activity), 1.0 mg protein/mL
# How it was run: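 Pooled male and female human liver microsomes, 1.0 mg protein/mL, in 100 mM PBS pH 7.4 with NADPH-regenerating system; compound 1 μM at 37° C, five time points over 60 min. Parent remaining by LC-MS/MS; kel, t1/2 and Clint from linear regression of ln(AUC) versus time.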
# [8] = molecular target: T4, norepinephrine transporter (NET) (Homo sapiens, UniProt P23975); test: Fluorescent substrate uptake inhibition, NET; format: cell-based; conditions: 10 μM, HEK293 cells expressing NET
# T4 construct: expressed in transfected cells; host or cells: HEK293
# [9] = Formation of metabolites 11R/11S in RLM (High Activity conditions); format: in vitro ADME, Sprague Dawley rats; conditions: LC-MS/MS
# Experimental: as §1, with “The reactions were stopped by adding 9 volumes of 90% acetonitrile-water to incubation aliquots, followed by protein sedimentation by centrifugation at 5500 rpm for 3 minutes.” left out
# This condition was also used for experiments measuring the formation of metabolite 11R from compounds 14R and 88R and formation of metabolite 11S from compounds 14S and 88S. The concentrations of 11R and 11S formed during the incubations were quantified using a fit-for-purpose liquid chromatography-tandem mass spectrometry (LC-MS/MS) method, with authentic samples of each analyte used for calibration and identity confirmation.
# [10] = system: T5, monoamine transporters, MATs (SERT, NET, DAT, VMAT2); test: Monoamine uptake inhibition, monoamine transporters collectively; format: cell-based; conditions: uptake inhibition
# T5 construct: rows headed: activity at MATs; stably transfected cells expressing the MAT of interest (HEK293 cells for SERT and NET)
# Experimental: The ability of the compounds of the present invention to inhibit uptake of monoamines by the serotonin transporter (SERT), norepinephrine transporter (NET), dopamine transporter (DAT), and vesicular monoamine transporter 2 (VMAT2) (collectively monoamine transporters, MATs) was measured using fluorescent substrate uptake assays in transfected cells (Table 14). The binding affinities of select compounds were also determined in radioligand displacement assays at SERT, NET, and/or DAT (Table 14).
# Uptake Inhibition. The ability of test compounds to block monoamine uptake by SERT, NET, DAT, and VMAT2 was determined using the Neurotransmitter Transporter Uptake Assay Kit manufactured by Molecular Devices (Cat #R8173). Briefly, stably transfected cells expressing the MAT of interest (HEK293 cells for SERT and NET; CHO cells for DAT) were grown and plated into 384-well plates at a concentration of 20,000 cells per well. Plates were then incubated for 16-20 h at 37° C. and 5% CO2. The medium was then aspirated and replaced with 25 μL of assay buffer (20 mM HEPES in HBSS, containing 0.1% BSA) containing the test compounds at the appropriate concentrations. Plates were then centrifuged at 300 rpm for 15 s and then incubated at 37° C. for 30 minutes. At this time, 25 μL of the proprietary fluorescent dye solution was added, the plates were incubated at 37° C. for 60 minutes, and then fluorescence was quantified on a plate reader (excitation wavelength=440 nm, emission wavelength=520 nm). The proprietary dye solution contains a mixture of 1) a fluorescent dye that mimics the endogenous substrates of MATs and is thereby actively transported to the intracellular compartment in the absence of an inhibitor and 2) a masking dye that inhibits the fluorescence of dye 1 in the extracellular compartment. Therefore, the overall fluorescence of the system increases as the fluorescent dye is transported into the cells.
# [11] = male, Sprague Dawley, rat, liver microsomes, pH 7.4, Condition 2 (High Activity), 1 μM, 1.0 mg protein/mL
# T3 sequence (Q01959 whole entry, species assumed): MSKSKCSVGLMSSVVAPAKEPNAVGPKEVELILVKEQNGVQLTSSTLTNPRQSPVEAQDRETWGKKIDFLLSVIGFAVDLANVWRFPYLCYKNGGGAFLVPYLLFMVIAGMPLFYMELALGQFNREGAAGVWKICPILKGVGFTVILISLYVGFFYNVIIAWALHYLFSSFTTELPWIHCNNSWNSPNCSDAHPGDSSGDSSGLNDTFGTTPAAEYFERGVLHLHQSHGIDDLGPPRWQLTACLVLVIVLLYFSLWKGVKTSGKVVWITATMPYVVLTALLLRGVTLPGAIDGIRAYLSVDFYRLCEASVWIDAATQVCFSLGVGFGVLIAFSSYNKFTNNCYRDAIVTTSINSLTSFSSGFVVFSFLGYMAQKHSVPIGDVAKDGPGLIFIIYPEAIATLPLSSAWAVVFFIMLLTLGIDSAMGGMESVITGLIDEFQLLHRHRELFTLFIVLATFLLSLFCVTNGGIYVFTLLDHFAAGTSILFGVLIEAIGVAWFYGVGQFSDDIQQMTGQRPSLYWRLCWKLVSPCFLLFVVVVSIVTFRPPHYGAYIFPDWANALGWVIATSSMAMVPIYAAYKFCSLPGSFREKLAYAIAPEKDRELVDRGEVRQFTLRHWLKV
# T4 sequence (P23975 whole entry, species assumed): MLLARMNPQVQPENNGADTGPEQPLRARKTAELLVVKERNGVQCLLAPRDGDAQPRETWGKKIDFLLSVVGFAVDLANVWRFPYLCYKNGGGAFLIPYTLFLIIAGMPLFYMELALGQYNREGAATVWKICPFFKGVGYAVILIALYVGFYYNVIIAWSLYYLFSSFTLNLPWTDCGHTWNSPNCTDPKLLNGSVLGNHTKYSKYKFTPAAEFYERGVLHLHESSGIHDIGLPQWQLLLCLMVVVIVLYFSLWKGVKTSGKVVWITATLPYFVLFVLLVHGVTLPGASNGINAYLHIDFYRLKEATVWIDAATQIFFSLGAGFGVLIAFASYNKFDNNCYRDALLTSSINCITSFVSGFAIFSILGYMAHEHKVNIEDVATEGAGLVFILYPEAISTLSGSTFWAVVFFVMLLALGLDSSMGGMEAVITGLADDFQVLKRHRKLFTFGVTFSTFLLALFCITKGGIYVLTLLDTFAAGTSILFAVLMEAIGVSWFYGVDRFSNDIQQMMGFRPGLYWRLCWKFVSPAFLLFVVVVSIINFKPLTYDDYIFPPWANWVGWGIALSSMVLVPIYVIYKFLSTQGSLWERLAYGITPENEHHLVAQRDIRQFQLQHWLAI
# T1 sequence (P31645 whole entry, species assumed): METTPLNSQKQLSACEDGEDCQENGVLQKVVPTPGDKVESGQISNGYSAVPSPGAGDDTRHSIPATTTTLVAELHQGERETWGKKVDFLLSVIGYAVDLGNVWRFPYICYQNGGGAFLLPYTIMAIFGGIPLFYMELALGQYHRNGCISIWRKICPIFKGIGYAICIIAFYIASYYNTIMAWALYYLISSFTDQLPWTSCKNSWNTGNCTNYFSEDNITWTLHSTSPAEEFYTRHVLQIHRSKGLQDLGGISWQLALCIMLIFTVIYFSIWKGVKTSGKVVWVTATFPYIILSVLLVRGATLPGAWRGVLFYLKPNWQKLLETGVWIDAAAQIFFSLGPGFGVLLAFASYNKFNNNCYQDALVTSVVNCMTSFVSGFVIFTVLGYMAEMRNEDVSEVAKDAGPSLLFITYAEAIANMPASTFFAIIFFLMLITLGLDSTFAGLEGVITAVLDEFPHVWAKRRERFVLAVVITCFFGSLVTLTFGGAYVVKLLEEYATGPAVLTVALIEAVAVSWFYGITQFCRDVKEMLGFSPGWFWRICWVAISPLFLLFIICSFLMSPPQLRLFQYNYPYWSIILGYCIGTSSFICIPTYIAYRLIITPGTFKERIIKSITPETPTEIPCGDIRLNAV
# T2 sequence (Q05940 whole entry, species assumed): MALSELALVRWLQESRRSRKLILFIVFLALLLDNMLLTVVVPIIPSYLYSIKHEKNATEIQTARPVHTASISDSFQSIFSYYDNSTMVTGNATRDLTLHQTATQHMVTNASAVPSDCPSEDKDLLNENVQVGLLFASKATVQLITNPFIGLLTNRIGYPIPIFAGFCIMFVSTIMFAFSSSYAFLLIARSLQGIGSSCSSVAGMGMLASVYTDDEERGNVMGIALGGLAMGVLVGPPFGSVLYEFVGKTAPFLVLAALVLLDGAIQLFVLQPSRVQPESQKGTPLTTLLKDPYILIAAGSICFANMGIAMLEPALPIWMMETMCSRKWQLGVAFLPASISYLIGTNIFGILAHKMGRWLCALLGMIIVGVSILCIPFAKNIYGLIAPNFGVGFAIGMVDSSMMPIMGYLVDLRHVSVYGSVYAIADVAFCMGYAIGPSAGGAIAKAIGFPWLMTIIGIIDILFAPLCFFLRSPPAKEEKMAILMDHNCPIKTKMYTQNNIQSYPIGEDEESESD
SMILES,metabolic stability compared to non-deuterated counterparts 14R and 14S ([1]; High Activity),"half-life at 1 μM [1, 11]","microsomal CLint at 1 μM [1, 11]",inhibition at 10 µM [2],Ki [3],half-life at 1 μM [4],microsomal CLint at 1 μM [4],inhibition at 10 µM [5],inhibition at 10 µM [6],half-life at 1 μM [7],microsomal CLint at 1 μM [7],inhibition at 10 µM [8],formation of metabolites 11R and 11S compared to non-deuterated counterparts [9],activity at MATs [10]
"[2H]C([2H])([2H])N[C@]1(c2ccccc2)CCCCC1=O [Compound 88S, (S)-2-((methyl-d3)amino)-2-phenylcyclohexan-1-one]",increased metabolic stability,0.88 h,13 µL/min/mg,28.2%,800 nM,1.86 h,6 µL/min/mg,-6%,18.6%,2.78 h,4 µL/min/mg,21.6%,attenuated formation; also recorded: decreased formation,–
O=C1CCCCC1(c1ccccc1)N1CCOCC1 (centres unmarked) [Compound 31],–,–,–,–,–,–,–,–,–,–,–,–,–,almost no activity
